# Patent publication US10766869B2, “Triazoles for the treatment of demyelinating dieases” (Vertex Pharmaceuticals Incorporated, priority 2015, dated 2020)
# Tested on: primary rat mixed cortical cells
# Assay: In vitro myelination assay (MBP positive myelin strands, fold myelin pixels above background)
# Assay type: cell-based
# Settings: Rattus norvegicus, relative to baseline of no added compound; for fold induction at 1 µM: 1.0 μM compound, read-out: Fold myelin pixels above background, 1.0 μM; for fold induction at 10 µM: 10.0 μM compound, read-out: Fold myelin pixels above background, 10.0 μM
# How it was run: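 P1 rat cortical cells (neurons, OPCs, oligodendrocytes, astrocytes, microglia) were cultured 14 days at 37 °C with compound, with half-medium changes containing 1× compound on days 6 and 10. Fixed cells were immunostained for MBP and imaged at 10×. Total MBP myelin pixels per well were expressed as fold above no-compound baseline at 1.0 μM and 10.0 μM.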
structure (smiles),measurement,value
"Cc1cc(Nc2ncn(-c3ccccc3)n2)cc(NC2CCN(C3COC3)C2)c1 (stereo not drawn) [Compound 309, 5-methyl-N1-[1-(oxetan-3-yl)pyrrolidin-3-yl]-N3-(1-phenyl-1,2,4-triazol-3-yl)benzene-1,3-diamine]",fold induction at 1 µM,1000 to 10000
same,fold induction at 10 µM,≤ 1
"COc1cc(Nc2ncn(-c3cc(F)cc(F)c3)n2)cc(N2CCN(C3COC3)CC2)c1 [Compound 310, 1-(3,5-difluorophenyl)-N-[3-methoxy-5-[4-(oxetan-3-yl)piperazin-1-yl]phenyl]-1,2,4-triazol-3-amine]",fold induction at 1 µM,1000 to 10000
same,fold induction at 10 µM,100 to 1000
"Cc1cc(Nc2ncn(-c3cc(F)cc(F)c3)n2)cc(N2CCN(C(C)(CO)CO)CC2)c1 [Compound 311, 2-[4-[3-[[1-(3,5-difluorophenyl)-1,2,4-triazol-3-yl]amino]-5-methyl-phenyl]piperazin-1-yl]-2-methyl-propane-1,3-diol]",fold induction at 1 µM,≤ 1
same,fold induction at 10 µM,≤ 1
"Cc1cc(Nc2ncn(-c3cc(C)nc(C)n3)n2)cc(N2CCN(C3COC3)CC2)c1 [Compound 312, 1-(2,6-dimethylpyrimidin-4-yl)-N-[3-methyl-5-[4-(oxetan-3-yl)piperazin-1-yl]phenyl]-1,2,4-triazol-3-amine]",fold induction at 1 µM,1 to 10
same,fold induction at 10 µM,1 to 10
"Fc1cc(F)cc(-n2cnc(Nc3cc(C4COC4)cc(N4CCN(C5COC5)CC4)c3)n2)c1 [Compound 313, 1-(3,5-difluorophenyl)-N-[3-(oxetan-3-yl)-5-[4-(oxetan-3-yl)piperazin-1-yl]phenyl]-1,2,4-triazol-3-amine]",fold induction at 1 µM,1 to 10
same,fold induction at 10 µM,100 to 1000
"CCc1cc(Nc2ncn(-c3ccnc(OC)n3)n2)cc(N2CCN(C3COC3)CC2)c1 [Compound 314, N-[3-ethyl-5-[4-(oxetan-3-yl)piperazin-1-yl]phenyl]-1-(2-methoxypyrimidin-4-yl)-1,2,4-triazol-3-amine]",fold induction at 1 µM,10 to 100
same,fold induction at 10 µM,10 to 100
"C1=C(c2cc(Nc3ncn(-c4ccccc4)n3)cc(C3=CCOCC3)c2)CCOC1 [Compound 315, N-[3,5-bis(3,6-dihydro-2H-pyran-4-yl)phenyl]-1-phenyl-1,2,4-triazol-3-amine]",fold induction at 1 µM,100 to 1000
same,fold induction at 10 µM,100 to 1000
"Cc1cc(Nc2ncn(-c3ccccc3)n2)cc(C2CCCNC2)c1 (stereo not drawn) [Compound 316, N-[3-methyl-5-(3-piperidyl)phenyl]-1-phenyl-1,2,4-triazol-3-amine]",fold induction at 1 µM,100 to 1000
same,fold induction at 10 µM,≤ 1
"Cc1cc(Nc2ncn(-c3ccc(F)c(F)c3)n2)cc(N2CCN(C)CC2)c1 [Compound 317, 1-(3,4-difluorophenyl)-N-[3-methyl-5-(4-methylpiperazin-1-yl)phenyl]-1,2,4-triazol-3-amine]",fold induction at 1 µM,100 to 1000
same,fold induction at 10 µM,10 to 100
"Cc1cc(Nc2ncn(-c3cc(F)cc(N4CC[C@@H](C(C)(C)O)C4)c3)n2)cc(N2CCN(C3COC3)CC2)c1 [Compound 318, 2-[(3R)-1-[3-fluoro-5-[3-[3-methyl-5-[4-(oxetan-3-yl)piperazin-1-yl]anilino]-1,2,4-triazol-1-yl]phenyl]pyrrolidin-3-yl]propan-2-ol]",fold induction at 1 µM,10 to 100
same,fold induction at 10 µM,≤ 1
"c1ccc(-n2cnc(Nc3cc(N4CCOCC4)nc(N4CCOCC4)c3)n2)cc1 [Compound 319, 2,6-dimorpholino-N-(1-phenyl-1,2,4-triazol-3-yl)pyridin-4-amine]",fold induction at 1 µM,1 to 10
same,fold induction at 10 µM,≤ 1
"Cc1cc(Nc2ncn(-c3cncc(F)c3)n2)cc(N2CCCC2)c1 [Compound 320, 1-(5-fluoro-3-pyridyl)-N-(3-methyl-5-pyrrolidin-1-yl-phenyl)-1,2,4-triazol-3-amine]",fold induction at 1 µM,10 to 100
same,fold induction at 10 µM,100 to 1000
"Fc1cc(Nc2ncn(-c3ccc(F)cc3F)n2)cc(N2CCOCC2)c1 [Compound 321, 1-(2,4-difluorophenyl)-N-(3-fluoro-5-morpholino-phenyl)-1,2,4-triazol-3-amine]",fold induction at 1 µM,1 to 10
same,fold induction at 10 µM,≤ 1
"CCc1cc(Nc2ncn(-c3ccc(C(F)(F)F)cc3)n2)cc(N2CCN(C3COC3)CC2)c1 [Compound 322, N-[3-ethyl-5-[4-(oxetan-3-yl)piperazin-1-yl]phenyl]-1-[4-(trifluoromethyl)phenyl]-1,2,4-triazol-3-amine]",fold induction at 1 µM,1 to 10
same,fold induction at 10 µM,1 to 10
"Cc1cc(Nc2ncn(-c3cc(C)cc(F)c3)n2)cc(N2CCN(C3COC3)CC2)c1 [Compound 323, 1-(3-fluoro-5-methyl-phenyl)-N-[3-methyl-5-[4-(oxetan-3-yl)piperazin-1-yl]phenyl]-1,2,4-triazol-3-amine]",fold induction at 1 µM,1000 to 10000
same,fold induction at 10 µM,100 to 1000
"Cc1cc(Nc2ncn(-c3cc(F)cc(F)c3)n2)cc(N2CCC(N3CCOCC3)CC2)c1 [Compound 324, 1-(3,5-difluorophenyl)-N-[3-methyl-5-(4-morpholino-1-piperidyl)phenyl]-1,2,4-triazol-3-amine]",fold induction at 1 µM,1 to 10
same,fold induction at 10 µM,10 to 100
"COCC1CN(c2cc(C)cc(Nc3ncn(-c4cc(F)cc(F)c4)n3)c2)CCO1 (stereo not drawn) [Compound 325, 1-(3,5-difluorophenyl)-N-[3-[2-(methoxymethyl)morpholin-4-yl]-5-methyl-phenyl]-1,2,4-triazol-3-amine]",fold induction at 1 µM,10 to 100
same,fold induction at 10 µM,10 to 100
"Cc1cc(Nc2ncn(-c3ccccc3)n2)cc(N2CCN(C(C)C)CC2)c1 [Compound 326, N-[3-(4-isopropylpiperazin-1-yl)-5-methyl-phenyl]-1-phenyl-1,2,4-triazol-3-amine]",fold induction at 1 µM,1000 to 10000
same,fold induction at 10 µM,≤ 1
"Fc1ccc(-n2cnc(Nc3cc(C4CC4)nc(N4CCCCC4)c3)n2)cc1F [Compound 327, 2-cyclopropyl-N-[1-(3,4-difluorophenyl)-1,2,4-triazol-3-yl]-6-(1-piperidyl)pyridin-4-amine]",fold induction at 1 µM,100 to 1000
same,fold induction at 10 µM,100 to 1000
"Cc1cc(Nc2ncn(-c3cc(F)cc(F)c3)n2)cc(C2CCCN(C)C2)c1 (stereo not drawn) [Compound 328, 1-(3,5-difluorophenyl)-N-[3-methyl-5-(1-methyl-3-piperidyl)phenyl]-1,2,4-triazol-3-amine]",fold induction at 1 µM,100 to 1000
same,fold induction at 10 µM,100 to 1000
"Cc1cc(Nc2ncn(-c3cc(F)cc(F)n3)n2)cc(N2CCN(C3COC3)CC2)c1 [Compound 329, 1-(4,6-difluoro-2-pyridyl)-N-[3-methyl-5-[4-(oxetan-3-yl)piperazin-1-yl]phenyl]-1,2,4-triazol-3-amine]",fold induction at 1 µM,1 to 10
same,fold induction at 10 µM,10 to 100
"CCc1cc(Nc2ncn(-c3ccccc3)n2)cc(N2CCN(C3COC3)CC2)c1 [Compound 330, N-[3-ethyl-5-[4-(oxetan-3-yl)piperazin-1-yl]phenyl]-1-phenyl-1,2,4-triazol-3-amine]",fold induction at 1 µM,1000 to 10000
same,fold induction at 10 µM,≤ 1
"Fc1cc(F)cc(-n2cnc(Nc3cc(C4CC4)nc(N4CC[C@H](F)C4)c3)n2)c1 [Compound 332, 2-cyclopropyl-N-[1-(3,5-difluorophenyl)-1,2,4-triazol-3-yl]-6-[(3S)-3-fluoropyrrolidin-1-yl]pyridin-4-amine]",fold induction at 1 µM,100 to 1000
same,fold induction at 10 µM,10 to 100
"Cc1cc(Nc2ncn(-c3ccccc3)n2)cc(C2CCN(C)CC2)c1 [Compound 333, N-[3-methyl-5-(1-methyl-4-piperidyl)phenyl]-1-phenyl-1,2,4-triazol-3-amine]",fold induction at 1 µM,1000 to 10000
same,fold induction at 10 µM,≤ 1
